Results: ChEMBL document CHEMBL6096652, “Design, synthesis and anti-tumor evaluation of novel pyrimidine and quinazoline analogues” (Eur J Med Chem, 2025)
Calls of active or inactive are those of the source. No cut-off for these calls is given here.

Key:
[1] = Toxicity in C57BL/6 mouse implanted with mouse B16-F10 cells assessed as adverse effects at 15 to 30 mg/kg measured after 10 days; format: organism-based; conditions: in vivo, 240 h, dose 15-30 mg/kg, time 10 day
[2] = test system: B16-F10; experiment: Antitumor activity against mouse B16-F10 cells implanted in C57BL/6 mouse assessed as reduction in tumor volume at 15 mg/kg measured after 10 days; format: functional, organism-based; conditions: time 10.0 day
[3] = test system: B16-F10; experiment: Induction of cell cycle arrest in mouse B16-F10 cells assessed as accumulation at G2/M phase at 50 nM incubated for 24 hrs by flow cytometry (reference value: 4.25 %); format: functional
[4] = test system: B16-F10; experiment: Induction of apoptosis in mouse B16-F10 cells assessed as viable cells at 200 nM incubated for 24 hrs by Annexin V-PE/7-AAD staining based flow cytometry (reference value: 94.5 %); format: functional; conditions: read-out: Activity
[5] = test system: B16-F10; experiment: Induction of cell cycle arrest in mouse B16-F10 cells assessed as accumulation at G1 phase at 50 nM incubated for 24 hrs by flow cytometry (reference value: 57.91 %); format: functional
[6] = test system: B16-F10; experiment: Induction of apoptosis in mouse B16-F10 cells assessed as late apoptotic cells at 50 nM incubated for 24 hrs by Annexin V-PE/7-AAD staining based flow cytometry (reference value: 4.13 %); format: functional
[7] = test system: B16-F10; experiment: Antitumor activity against mouse B16-F10 cells implanted in C57BL/6 mouse at 30 mg/kg measured after 10 days relative to control; format: functional; conditions: B16-F10, 240 h, time 10 day, read-out: TGI
[8] = test system: B16-F10; experiment: Induction of apoptosis in mouse B16-F10 cells assessed as early apoptotic cells at 100 nM incubated for 24 hrs by Annexin V-PE/7-AAD staining based flow cytometry (reference value: 1.04 %); format: functional
[9] = target: T1, Tubulin (Homo sapiens) (UniProt P68371+Q9H4B7+P0DPH7+P68366+Q13509+Q71U36+P04350+Q3ZCM7+P07437+P68363+Q9BQE3+Q6PEY2+Q13885+Q9BVA1+Q9BUF5); experiment: Disruption of microtubule polymerization in human HepG2 cells at 100 nM incubated for 12 hrs by immunofluorescence based analysis; format: cell-based
[10] = test system: B16-F10; experiment: Antiproliferative activity against mouse B16-F10 cells incubated for 48 hrs by MTT assay; format: functional, cell-based; conditions: B16-F10, 48 h
[11] = test system: B16-F10; experiment: Induction of apoptosis in mouse B16-F10 cells assessed as total apoptotic cells at 200 nM incubated for 24 hrs by Annexin V-PE/7-AAD staining based flow cytometry (reference value: 5.17 %); format: functional
[12] = test system: B16-F10; experiment: Induction of cell cycle arrest in mouse B16-F10 cells assessed as accumulation at G1 phase at 100 nM incubated for 24 hrs by flow cytometry (reference value: 57.91 %); format: functional
[13] = test system: B16-F10; experiment: Induction of cell cycle arrest in mouse B16-F10 cells assessed as accumulation at S phase at 200 nM incubated for 24 hrs by flow cytometry (reference value: 37.84 %); format: functional
[14] = test system: B16-F10; experiment: Induction of cell cycle arrest in mouse B16-F10 cells assessed as accumulation at G2/M phase at 200 nM incubated for 24 hrs by flow cytometry (reference value: 4.25 %); format: functional
[15] = test system: B16-F10; experiment: Induction of cell cycle arrest in mouse B16-F10 cells assessed as accumulation at S phase at 100 nM incubated for 24 hrs by flow cytometry (reference value: 37.84 %); format: functional
[16] = test system: B16-F10; experiment: Inhibition of cell migration in mouse B16-F10 cells assessed as recovery of scratch area at 50 nM incubated for 24 hrs by wound healing assay (reference value: 72.97 %); format: functional; design: scale not given: the % may be the effect or the level left
[17] = test system: B16-F10; experiment: Induction of apoptosis in mouse B16-F10 cells assessed as total apoptotic cells at 50 nM incubated for 24 hrs by Annexin V-PE/7-AAD staining based flow cytometry (reference value: 5.17 %); format: functional
[18] = test system: B16-F10; experiment: Induction of apoptosis in mouse B16-F10 cells assessed as late apoptotic cells at 100 nM incubated for 24 hrs by Annexin V-PE/7-AAD staining based flow cytometry (reference value: 4.13 %); format: functional
[19] = test system: B16-F10; experiment: Induction of apoptosis in mouse B16-F10 cells assessed as late apoptotic cells at 200 nM incubated for 24 hrs by Annexin V-PE/7-AAD staining based flow cytometry (reference value: 4.13 %); format: functional
[20] = test system: MCF7; experiment: Antiproliferative activity against human MCF7 cells incubated for 48 hrs by MTT assay; format: functional, cell-based; conditions: MCF7, 48 h
[21] = test system: B16-F10; experiment: Induction of apoptosis in mouse B16-F10 cells assessed as early apoptotic cells at 50 nM incubated for 24 hrs by Annexin V-PE/7-AAD staining based flow cytometry (reference value: 1.04 %); format: functional
[22] = test system: B16-F10; experiment: Induction of apoptosis in mouse B16-F10 cells assessed as necrotic cells at 50 nM incubated for 24 hrs by Annexin V-PE/7-AAD staining based flow cytometry (reference value: 0.33 %); format: functional
[23] = test system: B16-F10; experiment: Induction of apoptosis in mouse B16-F10 cells assessed as viable cells at 100 nM incubated for 24 hrs by Annexin V-PE/7-AAD staining based flow cytometry (reference value: 94.5 %); format: functional; conditions: read-out: Activity
[24] = test system: B16-F10; experiment: Induction of apoptosis in mouse B16-F10 cells assessed as viable cells at 50 nM incubated for 24 hrs by Annexin V-PE/7-AAD staining based flow cytometry (reference value: 94.5 %); format: functional; conditions: read-out: Activity
[25] = test system: B16-F10; experiment: Antitumor activity against mouse B16-F10 cells implanted in C57BL/6 mouse at 15 mg/kg measured after 10 days relative to control; format: functional; conditions: B16-F10, 240 h, time 10 day, read-out: TGI
[26] = test system: B16-F10; experiment: Induction of apoptosis in mouse B16-F10 cells assessed as early apoptotic cells at 200 nM incubated for 24 hrs by Annexin V-PE/7-AAD staining based flow cytometry (reference value: 1.04 %); format: functional
[27] = test system: B16-F10; experiment: Induction of apoptosis in mouse B16-F10 cells assessed as total apoptotic cells at 100 nM incubated for 24 hrs by Annexin V-PE/7-AAD staining based flow cytometry (reference value: 5.17 %); format: functional
[28] = test system: B16-F10; experiment: Inhibition of cell migration in mouse B16-F10 cells assessed as recovery of scratch area at 100 nM incubated for 24 hrs by wound healing assay (reference value: 72.97 %); format: functional; design: scale not given: the % may be the effect or the level left
[29] = test system: A549; experiment: Antiproliferative activity against human A549 cells incubated for 48 hrs by MTT assay; format: functional, cell-based; conditions: A549, 48 h
[30] = test system: B16-F10; experiment: Induction of cell cycle arrest in mouse B16-F10 cells assessed as accumulation at G2/M phase incubated for 24 hrs by flow cytometry; format: functional, cell-based
[31] = target: T1, Tubulin (Homo sapiens); experiment: (§1) Inhibition of tubulin polymerization (unknown origin) measured upto 20 mins by absorbance based assay; format: protein-complex assay
[32] = target: Tubulin; experiment: as §1; format: protein-complex assay, Homo sapiens
[33] = test system: B16-F10; experiment: Inhibition of cell migration in mouse B16-F10 cells assessed as recovery of scratch area at 200 nM incubated for 24 hrs by wound healing assay (reference value: 72.97 %); format: functional; design: scale not given: the % may be the effect or the level left
[34] = test system: HepG2; experiment: Antiproliferative activity against human HepG2 cells incubated for 48 hrs by MTT assay; format: functional, cell-based; conditions: HepG2, 48 h
[35] = test system: B16-F10; experiment: Induction of apoptosis in mouse B16-F10 cells assessed as necrotic cells at 100 nM incubated for 24 hrs by Annexin V-PE/7-AAD staining based flow cytometry (reference value: 0.33 %); format: functional
[36] = test system: B16-F10; experiment: Induction of cell cycle arrest in mouse B16-F10 cells assessed as accumulation at G1 phase at 200 nM incubated for 24 hrs by flow cytometry (reference value: 57.91 %); format: functional
[37] = test system: B16-F10; experiment: Induction of apoptosis in mouse B16-F10 cells assessed as necrotic cells at 200 nM incubated for 24 hrs by Annexin V-PE/7-AAD staining based flow cytometry (reference value: 0.33 %); format: functional
[38] = test system: B16-F10; experiment: Induction of cell cycle arrest in mouse B16-F10 cells assessed as accumulation at S phase at 50 nM incubated for 24 hrs by flow cytometry (reference value: 37.84 %); format: functional
[39] = Toxicity in C57BL/6 mouse implanted with mouse B16-F10 cells assessed as body weight change at 15 to 30 mg/kg measured after 10 days; format: organism-based; conditions: in vivo, 240 h, dose 15-30 mg/kg, time 10 day
[40] = test system: B16-F10; experiment: Induction of cell cycle arrest in mouse B16-F10 cells assessed as accumulation at G2/M phase at 100 nM incubated for 24 hrs by flow cytometry (reference value: 4.25 %); format: functional

Q: What does the source list for `COc1cc(Nc2ccnc(-c3cccc4c3ccn4C)n2)cc(OC)c1OC`?
A: Activity [1]: Non-toxic; Activity [2]: Active; Activity [3]: 15.61%; viability at 0.2 µM [4]: 77.4%; Activity [5]: 51.86%; Activity [6]: 8.25%; inhibition in vivo at 30 mg/kg [7]: 79.6%; Activity [8]: 3.58%; Activity [9]: Active; IC50 [10]: 98 nM; Activity [11]: 22.2%; Activity [12]: 11.76%; Activity [13]: 11.67%; Activity [14]: 82.41%; Activity [15]: 23.18%; Activity [16]: 69.89%; Activity [17]: 9.96%; Activity [18]: 9.91%; Activity [19]: 18.8%; IC50 [20]: 259 nM; Activity [21]: 1.71%; Activity [22]: 1.7%; viability at 0.1 µM [23]: 86%; viability at 0.05 µM [24]: 88.3%; inhibition in vivo at 15 mg/kg [25]: 57.9%; Activity [26]: 3.4%; Activity [27]: 13.49%; Activity [28]: 37.37%; IC50 [29]: 135 nM; Activity [30]: Dose-dependent-effect; inhibition [31]: Dose-dependent-effect; IC50 [32]: 22200 nM; Activity [33]: 22.38%; IC50 [34]: 109 nM; Activity [35]: 0.52%; Activity [36]: 5.91%; Activity [37]: 0.36%; Activity [38]: 32.53%; Activity [39]: Non-toxic; Activity [40]: 65.06%
